Measurements from patent US20250230165A1, “HETEROCYCLIC COMPOUNDS FOR USE IN THE TREATMENT OF CANCER” (ARTIOS PHARMA LIMITED, priority 2021, published 2025).

Molecular target: T1, Human Polθ polymerase domain (aa1820-2590) (Homo sapiens, UniProt O75417)
T1 construct: Human Polθ polymerase domain (aa1820-2590) was expressed in E. coli; made in house; host or cells: E. coli
T1 sequence (O75417 1820-2590): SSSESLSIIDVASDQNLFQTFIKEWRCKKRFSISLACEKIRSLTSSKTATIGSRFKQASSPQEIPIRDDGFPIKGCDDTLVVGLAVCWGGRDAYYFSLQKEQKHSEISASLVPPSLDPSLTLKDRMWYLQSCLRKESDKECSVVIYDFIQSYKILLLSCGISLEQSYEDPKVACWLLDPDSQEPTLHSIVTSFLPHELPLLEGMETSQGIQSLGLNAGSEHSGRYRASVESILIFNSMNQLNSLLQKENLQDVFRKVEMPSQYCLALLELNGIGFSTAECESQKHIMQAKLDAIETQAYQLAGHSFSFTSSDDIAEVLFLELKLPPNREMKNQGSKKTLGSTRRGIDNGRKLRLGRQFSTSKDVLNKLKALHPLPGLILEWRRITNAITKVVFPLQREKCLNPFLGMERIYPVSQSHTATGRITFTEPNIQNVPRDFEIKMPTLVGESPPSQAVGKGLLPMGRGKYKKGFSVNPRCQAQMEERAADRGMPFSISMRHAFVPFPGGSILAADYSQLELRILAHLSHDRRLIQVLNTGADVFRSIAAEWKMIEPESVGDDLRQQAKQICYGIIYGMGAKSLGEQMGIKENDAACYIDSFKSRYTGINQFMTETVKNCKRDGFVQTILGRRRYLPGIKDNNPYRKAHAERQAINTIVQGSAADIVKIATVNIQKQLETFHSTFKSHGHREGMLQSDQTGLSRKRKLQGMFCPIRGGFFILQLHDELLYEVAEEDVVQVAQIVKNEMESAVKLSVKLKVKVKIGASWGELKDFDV
Assay: Polθ Polymerase Domain Kinact/KI Assay (PicoGreen)
Format: biochemical
Conditions: 0.8 nM Polθ, 100 nM DNA substrate, kobs vs [I] fit for 2-step covalent inhibitor
Summary of the method: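 Kinact and KI derive from fitting kobs versus [I], where kobs were fitted from EDTA-stopped PicoGreen time courses (up to 60 min) in Tris pH 7.5 buffer with 1% DMSO, 0.8 nM enzyme, 100 nM DNA and […].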

Structure (SMILES) | Kinact/Kl [M⁻¹ s⁻¹]
Cc1cc(C(F)(F)F)cc(N2C(=O)C[C@@H]3CN(Cc4ccc(NC(=O)/C=C/CN(C)C)c(F)c4)c4c(Cl)cccc4N(C)C(=O)[C@H]32)n1 [Example 245, (E)-N-(4-(((3aR,11aS)-6-chloro-10-methyl-1-(6-methyl-4-(trifluoromethyl)pyridin-2-yl)-2,11-dioxo-1,2,3,3a,4,10,11,11a-octahydro-5H-benzo[b]pyrrolo[2,3-f][1,4]diazocin-5-yl)methyl)-2-fluorophenyl)-4-(dimethylamino)but-2-enamide] | 1.9e+06
Cc1cc(C(F)(F)F)cc(N2C(=O)C[C@@H]3CN(Cc4ccc(NC(=O)/C=C/CN(C)C)cc4F)c4c(Cl)cccc4N(C)C(=O)[C@H]32)n1 [Example 246, (E)-N-(4-(((3aR,11aS)-6-chloro-10-methyl-1-(6-methyl-4-(trifluoromethyl)pyridin-2-yl)-2,11-dioxo-1,2,3,3a,4,10,11,11a-octahydro-5H-benzo[b]pyrrolo[2,3-f][1,4]diazocin-5-yl)methyl)-3-fluorophenyl)-4-(dimethylamino)but-2-enamide] | 420000
Cc1cc(C(F)(F)F)cc(N2C(=O)C[C@@H]3CN(Cc4cccc(NC(=O)/C=C/CN(C)C)c4)c4c(Cl)cccc4N(C)C(=O)[C@H]32)n1 [Example 247, (E)-N-(3-(((3aR,11aS)-6-chloro-10-methyl-1-(6-methyl-4-(trifluoromethyl)pyridin-2-yl)-2,11-dioxo-1,2,3,3a,4,10,11,11a-octahydro-5H-benzo[b]pyrrolo[2,3-f][1,4]diazocin-5-yl)methyl)phenyl)-4-(dimethylamino)but-2-enamide] | 980000
C=CC(=O)Nc1ccc(CN2C[C@H]3CC(=O)N(c4cc(C(F)(F)F)cc(C)n4)[C@@H]3C(=O)N(C)c3cccc(Cl)c32)cc1C#N [Example 248, N-(4-(((3aR,11aS)-6-chloro-10-methyl-1-(6-methyl-4-(trifluoromethyl)pyridin-2-yl)-2,11-dioxo-1,2,3,3a,4,10,11,11a-octahydro-5H-benzo[b]pyrrolo[2,3-f][1,4]diazocin-5-yl)methyl)-2-cyanophenyl)acrylamide] | 810000
CC(=O)N1CCN(C/C=C/C(=O)Nc2ccc(CN3C[C@H]4CC(=O)N(c5cc(C(F)(F)F)cc(C)n5)[C@@H]4C(=O)N(C)c4cccc(C)c43)cc2)CC1 [Example 249, (E)-4-(4-acetylpiperazin-1-yl)-N-(4-(((3aR,11aS)-6,10-dimethyl-1-(6-methyl-4-(trifluoromethyl)pyridin-2-yl)-2,11-dioxo-1,2,3,3a,4,10,11,11a-octahydro-5H-benzo[b]pyrrolo[2,3-f][1,4]diazocin-5-yl)methyl)phenyl)but-2-enamide] | 110000
Cc1cc(C(F)(F)F)cc(N2C(=O)C[C@@H]3CN(Cc4ccc5c(c4)N(C(=O)/C=C/CN(C)C)CCO5)c4c(Cl)cccc4N(C)C(=O)[C@H]32)n1 [Example 251, (3aR,11aS)-6-chloro-5-((4-((E)-4-(dimethylamino)but-2-enoyl)-3,4-dihydro-2H-benzo[b][1,4]oxazin-6-yl)methyl)-10-methyl-1-(6-methyl-4-(trifluoromethyl)pyridin-2-yl)-1,3a,4,5,10,11a-hexahydro-2H-benzo[b]pyrrolo[2,3-f][1,4]diazocine-2,11(3H)-dione] | 370000
Cc1cc(C(F)(F)F)cc(N2C(=O)C[C@@H]3CN(CCCCNC(=O)/C=C/CN(C)C)c4c(Cl)cccc4N(C)C(=O)[C@H]32)n1 [Example 252, (E)-N-(4-((3aR,11aS)-6-chloro-10-methyl-1-(6-methyl-4-(trifluoromethyl)pyridin-2-yl)-2,11-dioxo-1,2,3,3a,4,10,11,11a-octahydro-5H-benzo[b]pyrrolo[2,3-f][1,4]diazocin-5-yl)butyl)-4-(dimethylamino)but-2-enamide] | 1.19e+06

Next, values leading:

Kinact/Kl [M⁻¹ s⁻¹] | Structure (SMILES)
2.26e+06 | C=CC(=O)N1Cc2ncc(CN3C[C@H]4CC(=O)N(c5cc(C(F)(F)F)cc(C)n5)[C@@H]4C(=O)N(C)c4cccc(C)c43)nc2C1 [Example 228, (3aR,11aS)-5-((6-acryloyl-6,7-dihydro-5H-pyrrolo[3,4-b]pyrazin-2-yl)methyl)-6,10-dimethyl-1-(6-methyl-4-(trifluoromethyl)pyridin-2-yl)-1,3a,4,5,10,11a-hexahydro-2H-benzo[b]pyrrolo[2,3-f][1,4]diazocine-2,11(3H)-dione]
730000 | C=CC(=O)N1Cc2ncc(CN3C[C@H]4CC(=O)N(c5cc(C(F)(F)F)cc(C)n5)[C@@H]4C(=O)N(C)c4cccc(Cl)c43)nc2C1 [Example 229, (3aR,11aS)-5-((6-acryloyl-6,7-dihydro-5H-pyrrolo[3,4-b]pyrazin-2-yl)methyl)-6-chloro-10-methyl-1-(6-methyl-4-(trifluoromethyl)pyridin-2-yl)-1,3a,4,5,10,11a-hexahydro-2H-benzo[b]pyrrolo[2,3-f][1,4]diazocine-2,11(3H)-dione]
740000 | C=CC(=O)N1Cc2nc(CN3C[C@H]4CC(=O)N(c5cc(C(F)(F)F)cc(C)n5)[C@@H]4C(=O)N(C)c4cccc(C)c43)ccc2C1CO (stereo partly drawn) [Example 238, (3aR,11aS)-5-((6-acryloyl-5-(hydroxymethyl)-6,7-dihydro-5H-pyrrolo[3,4-b]pyridin-2-yl)methyl)-6,10-dimethyl-1-(6-methyl-4-(trifluoromethyl)pyridin-2-yl)-1,3a,4,5,10,11a-hexahydro-2H-benzo[b]pyrrolo[2,3-f][1,4]diazocine-2,11(3H)-dione]
730000 | C=CC(=O)N1Cc2nc(CN3C[C@H]4CC(=O)N(c5cc(C(F)(F)F)cc(C)n5)[C@@H]4C(=O)N(C)c4cccc(Cl)c43)ccc2C1CO (stereo partly drawn) [Example 239, (3aR,11aS)-5-((6-acryloyl-5-(hydroxymethyl)-6,7-dihydro-5H-pyrrolo[3,4-b]pyridin-2-yl)methyl)-6-chloro-10-methyl-1-(6-methyl-4-(trifluoromethyl)pyridin-2-yl)-1,3a,4,5,10,11a-hexahydro-2H-benzo[b]pyrrolo[2,3-f][1,4]diazocine-2,11(3H)-dione]
1.55e+06 | C=CC(=O)N1Cc2ccc(CN3C[C@H]4CC(=O)N(c5cc(C(F)(F)F)cc(C)n5)[C@@H]4C(=O)N(C)c4cccc(C)c43)nc2C1 [Example 240, (3aR,11aS)-5-((6-acryloyl-6,7-dihydro-5H-pyrrolo[3,4-b]pyridin-2-yl)methyl)-6,10-dimethyl-1-(6-methyl-4-(trifluoromethyl)pyridin-2-yl)-1,3a,4,5,10,11a-hexahydro-2H-benzo[b]pyrrolo[2,3-f][1,4]diazocine-2,11(3H)-dione]
1.28e+06 | C=CC(=O)N1Cc2nc(CN3C[C@H]4CC(=O)N(c5cc(C(F)(F)F)cc(C)n5)[C@@H]4C(=O)N(C)c4cccc(C)c43)n(C)c2C1 [Example 241, (3aR,11aS)-5-((5-acryloyl-1-methyl-1,4,5,6-tetrahydropyrrolo[3,4-d]imidazol-2-yl)methyl)-6,10-dimethyl-1-(6-methyl-4-(trifluoromethyl)pyridin-2-yl)-1,3a,4,5,10,11a-hexahydro-2H-benzo[b]pyrrolo[2,3-f][1,4]diazocine-2,11(3H)-dione]
660000 | C=CC(=O)N1Cc2nc(CN3C[C@H]4CC(=O)N(c5cc(C(F)(F)F)cc(C)n5)[C@@H]4C(=O)N(C)c4cccc(Cl)c43)n(C)c2C1 [Example 242, (3aR,11aS)-5-((5-acryloyl-1-methyl-1,4,5,6-tetrahydropyrrolo[3,4-d]imidazol-2-yl)methyl)-6-chloro-10-methyl-1-(6-methyl-4-(trifluoromethyl)pyridin-2-yl)-1,3a,4,5,10,11a-hexahydro-2H-benzo[b]pyrrolo[2,3-f][1,4]diazocine-2,11(3H)-dione]
3.83e+06 | C=CC(=O)N1Cc2nc(CN3C[C@H]4CC(=O)N(c5cc(C(F)(F)F)cc(C)n5)[C@@H]4C(=O)N(C)c4cccc(Cl)c43)cn2CC1CO (stereo partly drawn) [Example 244, (3aR,11aS)-5-((7-acryloyl-6-(hydroxymethyl)-5,6,7,8-tetrahydroimidazo[1,2-a]pyrazin-2-yl)methyl)-6-chloro-10-methyl-1-(6-methyl-4-(trifluoromethyl)pyridin-2-yl)-1,3a,4,5,10,11a-hexahydro-2H-benzo[b]pyrrolo[2,3-f][1,4]diazocine-2,11(3H)-dione]
530000 | C=CC(=O)N1CCOc2ccc(CN3C[C@H]4CC(=O)N(c5cc(C(F)(F)F)cc(C)n5)[C@@H]4C(=O)N(C)c4cccc(Cl)c43)cc21 [Example 250, (3aR,11aS)-5-((4-acryloyl-3,4-dihydro-2H-benzo[b][1,4]oxazin-6-yl)methyl)-6-chloro-10-methyl-1-(6-methyl-4-(trifluoromethyl)pyridin-2-yl)-1,3a,4,5,10,11a-hexahydro-2H-benzo[b]pyrrolo[2,3-f][1,4]diazocine-2,11(3H)-dione]
